Measurements as given in ChEMBL document CHEMBL1212927, “Synthesis and structure-activity relationships of novel 8a-aza-8a-homoerythromycin A ketolides” (2010).
In brackets after ≈: the same amount, converted by molar mass.

Columns and labels:
[1] = system: Staphylococcus aureus; test: Antibacterial activity against efflux-resistant Staphylococcus aureus B0331 by agar microdilution method; assay type: functional
[2] = system: Haemophilus influenzae; test: Antibacterial activity against Haemophilus influenzae B0529 by agar microdilution method; assay type: functional
[3] = system: Staphylococcus aureus; test: Antibacterial activity against constitutive macrolide-lincosamide-streptogramin B-resistant Staphylococcus aureus B0330 by agar microdilution method; assay type: functional
[4] = system: Streptococcus pyogenes; test: Antibacterial activity against constitutive macrolide-lincosamide-streptogramin B-resistant Streptococcus pyogenes B0544 by agar microdilution method; assay type: functional
[5] = system: Streptococcus pneumoniae; test: Antibacterial activity against erythromycin-susceptible Streptococcus pneumoniae B0541 by agar microdilution method
[6] = system: Moraxella catarrhalis; test: Antibacterial activity against Moraxella catarrhalis B0324 by agar microdilution method; assay type: functional
[7] = system: Streptococcus pneumoniae; test: Antibacterial activity against efflux-resistant Streptococcus pneumoniae B0326 by agar microdilution method; assay type: functional
[8] = system: Streptococcus pyogenes; test: Antibacterial activity against efflux-resistant Streptococcus pyogenes B0545 by agar microdilution method; assay type: functional
[9] = system: Streptococcus pyogenes; test: Antibacterial activity against inducible macrolide-lincosamide-streptogramin B-resistant Streptococcus pyogenes B0543 by agar microdilution method; assay type: functional
[10] = system: Streptococcus pyogenes; test: Antibacterial activity against erythromycin A-susceptible Streptococcus pyogenes B0542 by agar microdilution method
[11] = system: Streptococcus pneumoniae; test: Antibacterial activity against constitutive macrolide-lincosamide-streptogramin B-resistant Streptococcus pneumoniae B0627 by agar microdilution method; assay type: functional
[12] = system: Staphylococcus aureus; test: Antibacterial activity against inducible macrolide-lincosamide-streptogramin B-resistant Staphylococcus aureus B0538 by agar microdilution method; assay type: functional
[13] = system: Staphylococcus aureus; test: Antibacterial activity against erythromycin A-susceptible Staphylococcus aureus B0329 by agar microdilution method

Row | SMILES | MIC [1] | MIC [2] | MIC [3] | MIC [4] | MIC [5] | MIC [6] | MIC [7] | MIC [8] | MIC [9] | MIC [10] | MIC [11] | MIC [12] | MIC [13]
1 | C=CCO[C@]1(C)C[C@@H](C)NC(=O)[C@H](C)[C@@H](O)[C@](C)(O)[C@@H](CC)OC(=O)[C@H](C)C(=O)[C@H](C)[C@H]1O[C@@H]1O[C@H](C)C[C@H](N(C)C)[C@H]1O | 16 µg/mL (≈ 25.4 µM) | 16 µg/mL (≈ 25.4 µM) | > 64 µg/mL | > 64 µg/mL | 1 µg/mL (≈ 1.59 µM) | 8 µg/mL (≈ 12.7 µM) | 4 µg/mL (≈ 6.36 µM) | 8 µg/mL (≈ 12.7 µM) | > 64 µg/mL | 4 µg/mL (≈ 6.36 µM) | > 64 µg/mL | > 64 µg/mL | 8 µg/mL (≈ 12.7 µM)
2 | CC[C@H]1OC(=O)[C@H](C)C(=O)[C@H](C)[C@@H](O[C@@H]2O[C@H](C)C[C@H]([N+](C)(C)[O-])[C@H]2O)[C@](C)(OCC2CO2)C[C@@H](C)NC(=O)[C@H](C)[C@@H](O)[C@]1(C)O (stereo partly specified) | > 64 µg/mL | > 64 µg/mL | > 64 µg/mL | > 64 µg/mL | > 64 µg/mL | > 64 µg/mL | > 64 µg/mL | > 64 µg/mL | > 64 µg/mL | > 64 µg/mL | > 64 µg/mL | > 64 µg/mL | > 64 µg/mL
3 | CC[C@H]1OC(=O)[C@H](C)C(=O)[C@H](C)[C@@H](O[C@@H]2O[C@H](C)C[C@H](N(C)C)[C@H]2O)[C@](C)(OCC2CO2)C[C@@H](C)NC(=O)[C@H](C)[C@@H](O)[C@]1(C)O (stereo partly specified) | 16 µg/mL (≈ 24.8 µM) | 32 µg/mL (≈ 49.6 µM) | > 64 µg/mL | > 64 µg/mL | 2 µg/mL (≈ 3.1 µM) | 16 µg/mL (≈ 24.8 µM) | 8 µg/mL (≈ 12.4 µM) | 8 µg/mL (≈ 12.4 µM) | > 64 µg/mL | 4 µg/mL (≈ 6.2 µM) | > 64 µg/mL | > 64 µg/mL | 4 µg/mL (≈ 6.2 µM)
4 | CC[C@H]1OC(=O)[C@H](C)C(=O)[C@H](C)[C@@H](O[C@@H]2O[C@H](C)C[C@H](N(C)C)[C@H]2O)[C@](C)(OCC(O)CNCCCc2ccccc2)C[C@@H](C)NC(=O)[C@H](C)[C@@H](O)[C@]1(C)O (stereo partly specified) | 8 µg/mL (≈ 10.3 µM) | 16 µg/mL (≈ 20.5 µM) | > 64 µg/mL | 16 µg/mL (≈ 20.5 µM) | 0.25 µg/mL (≈ 0.321 µM) | 1 µg/mL (≈ 1.28 µM) | 8 µg/mL (≈ 10.3 µM) | 1 µg/mL (≈ 1.28 µM) | 1 µg/mL (≈ 1.28 µM) | 0.25 µg/mL (≈ 0.321 µM) | 8 µg/mL (≈ 10.3 µM) | 8 µg/mL (≈ 10.3 µM) | 4 µg/mL (≈ 5.13 µM)
5 | CC[C@H]1OC(=O)[C@H](C)C(=O)[C@H](C)[C@@H](O[C@@H]2O[C@H](C)C[C@H](N(C)C)[C@H]2O)[C@](C)(OCC(O)CNCCc2cccnc2)C[C@@H](C)NC(=O)[C@H](C)[C@@H](O)[C@]1(C)O (stereo partly specified) | 4 µg/mL (≈ 5.22 µM) | 8 µg/mL (≈ 10.4 µM) | > 64 µg/mL | 32 µg/mL (≈ 41.7 µM) | 0.5 µg/mL (≈ 0.652 µM) | 1 µg/mL (≈ 1.3 µM) | 8 µg/mL (≈ 10.4 µM) | 2 µg/mL (≈ 2.61 µM) | 4 µg/mL (≈ 5.22 µM) | 0.25 µg/mL (≈ 0.326 µM) | 2 µg/mL (≈ 2.61 µM) | 8 µg/mL (≈ 10.4 µM) | 4 µg/mL (≈ 5.22 µM)
6 | CC[C@H]1OC(=O)[C@H](C)C(=O)[C@H](C)[C@@H](O[C@@H]2O[C@H](C)C[C@H](N(C)C)[C@H]2O)[C@](C)(OCC(O)CNCCCc2cccnc2)C[C@@H](C)NC(=O)[C@H](C)[C@@H](O)[C@]1(C)O (stereo partly specified) | 4 µg/mL (≈ 5.12 µM) | 16 µg/mL (≈ 20.5 µM) | > 64 µg/mL | 16 µg/mL (≈ 20.5 µM) | 0.25 µg/mL (≈ 0.32 µM) | 0.5 µg/mL (≈ 0.64 µM) | 4 µg/mL (≈ 5.12 µM) | 1 µg/mL (≈ 1.28 µM) | 0.5 µg/mL (≈ 0.64 µM) | ≤ 0.125 µg/mL | 1 µg/mL (≈ 1.28 µM) | 4 µg/mL (≈ 5.12 µM) | 2 µg/mL (≈ 2.56 µM)
7 | CC[C@H]1OC(=O)[C@H](C)C(=O)[C@H](C)[C@@H](O[C@@H]2O[C@H](C)C[C@H](N(C)C)[C@H]2O)[C@](C)(OCC(O)CNCCCCc2cccnc2)C[C@@H](C)NC(=O)[C@H](C)[C@@H](O)[C@]1(C)O (stereo partly specified) | 1 µg/mL (≈ 1.26 µM) | 2 µg/mL (≈ 2.52 µM) | > 64 µg/mL | 4 µg/mL (≈ 5.03 µM) | ≤ 0.125 µg/mL | ≤ 0.125 µg/mL | 1 µg/mL (≈ 1.26 µM) | 0.5 µg/mL (≈ 0.629 µM) | ≤ 0.125 µg/mL | ≤ 0.125 µg/mL | 0.5 µg/mL (≈ 0.629 µM) | 1 µg/mL (≈ 1.26 µM) | 0.5 µg/mL (≈ 0.629 µM)
